In patent US20100143452A1, “POLYPHENOL CONTAINING COMPOSITIONS” (Universiteit Utrecht Holding B.V., priority 2006, published 2010):

Experiments:
[1] = system: B16 murine melanoma and C26 murine colon carcinoma; test: tumor growth in B16 or C26-tumor bearing mice; type: in vivo; settings: i.v. 20 mg/kg, between day 7 and day 14, after a second injection at day 7
Description: B16 murine melanoma and C26 murine colon carcinoma cells were cultured at 37° C. in a 5% CO2-containing humidified atmosphere in DMEM medium (Gibco, Breda, The Netherlands) containing 10% (v/v) fetal calf serum supplemented with 2 mM L-glutamine, 100 IU/ml penicillin, 100 microgram/ml streptomycin and 0.25 microgram/ml amphotericin B (Gibco). Male Balb/c and C57B1/6 mice (6-8 weeks of age) were obtained from Charles River, kept in standard housing with standard rodent chow and water available ad libitum, and a 12 h light/dark cycle. Experiments were performed according to national regulations and approved by the local animal experiments ethical committee. Mice received a single intravenous injection of an indicated dose of free caffeic acid or liposomal caffeic acid prepared in Example 1 at the time when the tumor became palpable. At 7 days after treatment, tumor size was measured and tumor volume calculated according to the equation V=0.52×a^2×b, wherein a is the smallest and b is the largest superficial diameter. […] Tumor size was measured regularly, and tumor volume was calculated as described above. For the statistical analysis, data were analysed by one-way ANOVA with Dunnett's post test using GraphPad InStat version 3.05 for Windows, GraphPad Software (San Diego, USA). […] Spearman rank correlation coefficient was calculated to identify dose-response. […]

[2] = system: cells; settings: 80 micomoles of naringenin per liter, for 24 hours; cited from earlier work
[3] = oral ingestion, best case scenario; cited from earlier work
[4] = dietary (ingested) polyphenols; cited from earlier work

Q: With `O=C(O)/C=C/c1ccc(O)c(O)c1` [free caffeic acid, caffeic acid] as the compound, how does the “effect on tumor volume” value [1] read?
A: Its value is “did not reduce tumor volume”.

Q: For `O=C1C[C@@H](c2ccc(O)cc2)Oc2cc(O)cc(O)c21` [naringenin], which “reduction of hydroxyl damage to the DNA” value [2] is on record?
A: Its value is 24%.

Q: What about the “ingested amount absorbed in the human gastrointestinal tract” value [3] of the same compound?
A: The value was no more than 15%.

Q: With `O=c1c(O)c(-c2ccc(O)c(O)c2)oc2cc(O)cc(O)c12` [quercetin] as the compound, how does the bioavailability [4] read?
A: The bioavailability was 1-5%.
